Experimental findings from PMC5904222, “Synthesis and anticancer activity of multisubstituted purines and xanthines with one or two propynylthio and aminobutynylthio groups” (Medicinal Chemistry Research, 2018) are described below.

For series [1], the system named is C-32 (human amelanotic melanoma). Put plainly: WST-1 proliferation assay, C-32. In kind it is cell-based. The following applies: C-32 cells, 72 h exposure; for IC50: Homo sapiens, C32, 72 h, read-out: Antiproliferative activity IC50 C-32. The procedure: (§1) Compounds were evaluated for their anticancer activity using three cultured cell lines: SNB-19 (human glioblastoma, DSMZ - German Collection of Microorganisms and Cell Cultures, Braunschweig, Germany), C-32 (human amelanotic melanoma, ATCC-American Type Culture Collection, Manassas, VA, USA), MDA-MB-231 (human adenocarcinoma mammary gland, ATCC, Manassas, VA, USA), and HFF-1 (human fibroblast cell line, ATCC, Manassas, VA, USA). The cultured cells were kept at 37 °C and 5% CO2. The cells were seeded (1 × 10^4 cells/well/100 μL DMEM supplemented with 10% FCS and streptomycin and penicillin) using 96-well plates (Corning). The cells were counted in a hemocytometer (Burker’s chamber) using a phase contrast Olympus IX50 microscope equipped with Sony SSC-DC58 AP camera and Olympus DP10 digital camera.
(§2) The antiproliferative effect of the compounds obtained from both the cancer and the normal cells was determined using the Cell Proliferation Reagent WST-1 assay (Roche Diagnostics, Mannheim, Germany). This colorimetric assay is based on the viable cell’s ability to cause the bright red-colored stable tetrazolium salt (2-(4-iodophenyl)-3-(4-nitrophenyl)-5-(2,4-disulfophenyl)-2H-tetrazolium, monosodium salt) to cleave to the dark red soluble formazan by cellular enzymes. An expansion in the number of viable cells results in an increase in the overall activity of mitochondrial dehydrogenases in the sample. An increase in the amount of formazan dye formed correlates to the number of metabolically active cells in the culture. The formazan dye produced by metabolically active cells is quantified by a scanning ELISA reader that measures the absorbance of the dye solution at appropriate wavelengths. The examined cells were exposed to the tested compounds for 72 h at various concentrations between 0.1 and 100 μg/mL (prepared initially at a concentration of 1 mg/mL in DMSO). The control was performed in order to check that DMSO has no effect on the cells at the concentration used. The cells were incubated with WST-1 (10 μL) for 1 h and the absorbance of the samples was measured against a background control at 450 nm using a microplate reader with a reference wavelength at 600 nm. The results are expressed as the means of at least two independent experiments performed in triplicate. […] The IC50 values (a concentration of a compound that is required for 50% inhibition) were calculated from the dose–response relationship with respect to control.
A general note: Formazan colour is commonly taken as a measure of viable cells.

Series [2] relates to HFF-1 (human fibroblast cell line). As to the kind of experiment: WST-1 proliferation assay, normal fibroblasts HFF-1. It counts as cell-based. The following applies: for IC50: read-out: Antiproliferative activity IC50 HFF-1. The procedure: as §1
as §2, with “The control was performed in order to check that DMSO has no effect on the cells at the concentration used.” left out

For series [3], the system named is SNB-19 (human glioblastoma). As to the kind of experiment: WST-1 proliferation assay, SNB-19. It counts as cell-based. The following applies: SNB-19 cells, 72 h exposure; for IC50: Homo sapiens, SNB-19, 72 h, read-out: Antiproliferative activity IC50 SNB-19. The method, then: as §1, §2
Series [4] deals with MDA-MB-231 (human adenocarcinoma mammary gland). As to the kind of experiment: WST-1 proliferation assay, MDA-MB-231. It counts as cell-based. The following applies: MDA-MB-231 cells, 72 h exposure; for IC50: Homo sapiens, MDA-MB-231, 72 h, read-out: Antiproliferative activity IC50 MDA-MB-231. The method, then:
as §1, §2

The mark [5] stands for this setting: normal human fibroblasts HFF-1, 72 h exposure, WST-1.

Structures are written as SMILES. ≈ marks a conversion by molar mass, not a printed value.

Compound `CCN(CC)CC#CCSc1nc2c(c(=O)[nH]c(=O)n2C)n1C` [Compound 10d, 8-(4-diethylaminobut-2-ynylthio)-3,7-dimethylxanthine] gave a melting point of 186 to 188 °C. The half-inhibitory concentration (IC50) in series [1] is 26.4 µg/mL (≈ 78.6 µM). For the same compound, in series [2] (setting [5]), the IC50 stood at 3.68 µg/mL (≈ 11 µM). Besides, in series [3], the IC50 is less than 1.7 µg/mL and the “Antiproliferative activity IC50 SNB-19” value came to 1.48 µg/mL. The IC50 in series [4] amounted to 68.1 µg/mL (≈ 203 µM).
`CCN(CC)CC#CCSc1nc(Cl)nc2ncn(C)c12` [Compound 2c, 2-Chloro-6-(4-diethylaminobut-2-ynylthio)-7-methylpurine] returned a melting point of 117 to 118 °C. Further, the IC50 in series [1] is 11.9 µg/mL (≈ 36.7 µM). Moreover, the half-inhibitory concentration (IC50) in series [2] (setting [5]) amounted to 8.65 µg/mL (≈ 26.7 µM). Further, the IC50 in series [3] was determined as 17.4 µg/mL (≈ 53.7 µM). The IC50 in series [4] amounted to 48.1 µg/mL (≈ 148 µM).
For the compound `N.N.[Cl][Pt][Cl]` [Cisplatin, cisplatin, reference compound], the “Antiproliferative activity IC50 C-32” value in series [1] amounted to 5.71 µg/mL. Further, the “Antiproliferative activity IC50 HFF-1” value in series [2] (setting [5]) stood at 1.21 µg/mL. For the same compound, the “Antiproliferative activity IC50 SNB-19” value in series [3] came to 1.46 µg/mL. Also, the “Antiproliferative activity IC50 MDA-MB-231” value in series [4] was 11.85 µg/mL.
In turn, `Cn1cnc2nc(SCC#CCN3CCOCC3)nc(SCC#CCN3CCOCC3)c21` [Compound 5c, 2,6-Di(4-N-morpholinylbut-2-ynylthio)-7-methylpurine] returned a melting point of 121 to 123 °C. In series [1], the IC50 is 0.35 µg/mL (≈ 0.741 µM). The IC50 in series [2] (setting [5]) came out at 0.37 µg/mL (≈ 0.783 µM). For the same compound, the IC50 in series [3] was found to be 21.5 µg/mL (≈ 45.6 µM). Also, the half-inhibitory concentration (IC50) in series [4] amounted to 50.8 µg/mL (≈ 107 µM).
In turn, `CCN(CC)CC#CCSc1nc(SCC#CCN(CC)CC)c2c(ncn2C)n1` [Compound 5d, 2,6-Di(4-diethylaminobut-2-ynylthio)-7-methylpurine] gave a melting point of 77 to 79 °C. Moreover, the IC50 in series [1] is 23.9 µg/mL (≈ 53.7 µM). Besides, the half-maximal inhibitory concentration (IC50) in series [2] (setting [5]) is 5.95 µg/mL (≈ 13.4 µM). For the same compound, the IC50 in series [3] came out at 48.9 µg/mL (≈ 110 µM). Moreover, the IC50 in series [4] was found to be 38.5 µg/mL (≈ 86.6 µM).
The corresponding values for `Cn1cnc2nc(SCC#CCN3CCCCC3)nc(SCC#CCN3CCCCC3)c21` [Compound 5b, 2,6-Di(4-N-piperidinylbut-2-ynylthio)-7-methylpurine] are 130 to 132 °C, 6.39 µg/mL (≈ 13.6 µM), 3.98 µg/mL (≈ 8.49 µM), 4.64 µg/mL (≈ 9.9 µM) and 7.35 µg/mL (≈ 15.7 µM).
The corresponding values for `Cn1c(SCC#CCN2CCCC2)nc2c1c(=O)[nH]c(=O)n2C` [Compound 10a, 8-(4-N-pyrrolidinylbut-2-ynylthio)-3,7-dimethylxanthine] are 195 to 197 °C, 51.1 µg/mL (≈ 153 µM), 34.3 µg/mL (≈ 103 µM), 177 µg/mL (≈ 530 µM) and 472 µg/mL (≈ 1410 µM).
`Cn1c(SCC#CCN2CCCC2)nc2nc(Cl)nc(SCC#CCN3CCCC3)c21` [Compound 15a, 2-Chloro-6,8-di(4-N-pyrrolidinylbut-2-ynylthio)-7-methylpurine] gave a melting point of 133 to 135 °C. For the same compound, in series [1], the “Antiproliferative activity IC50 C-32” value came out at 4.55 µg/mL and the half-inhibitory concentration (IC50) was 3.8 to 4.5 µg/mL (≈ 8 to 9.47 µM). In series [2] (setting [5]), the 50% inhibitory concentration (IC50) was 3.63 µg/mL (≈ 7.64 µM). For the same compound, in series [3], the IC50 is less than 1 µg/mL and the “Antiproliferative activity IC50 SNB-19” value was determined as 0.52 µg/mL. Further, in series [4], the 50% inhibitory concentration (IC50) lay within 3.8 to 4.5 µg/mL (≈ 8 to 9.47 µM) and the “Antiproliferative activity IC50 MDA-MB-231” value came out at 3.83 µg/mL.
As for `Cn1cnc2nc(Cl)nc(SCC#CCN3CCCCC3)c21` [Compound 2a, 2-Chloro-6-(4-N-piperidinylbut-2-ynylthio)-7-methylpurine], the melting point fell in the range of 122 to 124 °C. Further, the IC50 in series [1] is 21 µg/mL (≈ 62.6 µM). Further, in series [2] (setting [5]), the IC50 was 35.4 µg/mL (≈ 105 µM). Also, the IC50 in series [3] was found to be 28.8 µg/mL (≈ 85.7 µM). Moreover, the IC50 in series [4] is 33.4 µg/mL (≈ 99.4 µM).
On to `Cn1cnc2nc(SCC#CCN3CCCC3)nc(SCC#CCN3CCCC3)c21` [Compound 5a, 2,6-Di(4-N-pyrrolidinylbut-2-ynylthio)-7-methylpurine], for which the melting point lay within 97 to 99 °C. In addition, the IC50 in series [1] is 6.81 µg/mL (≈ 15.5 µM). Further, the IC50 in series [2] (setting [5]) was found to be 10 µg/mL (≈ 22.7 µM). For the same compound, the IC50 in series [3] is 19.4 µg/mL (≈ 44 µM). Further, the IC50 in series [4] came to 19.9 µg/mL (≈ 45.3 µM).
The corresponding values for `Cn1c(SCC#CCN2CCCCC2)nc2nc(Cl)nc(SCC#CCN3CCCCC3)c21` [Compound 15b, 2-Chloro-6,8-di(4-N-piperidinylbut-2-ynylthio)-7-methylpurine] are 108 to 110 °C, 19.1 µg/mL (≈ 37.9 µM), 5.5 µg/mL (≈ 10.9 µM), 11.6 µg/mL (≈ 23.1 µM) and 38.1 µg/mL (≈ 75.7 µM).
`Cn1c(SCC#CCN2CCOCC2)nc2nc(Cl)nc(SCC#CCN3CCOCC3)c21` [Compound 15c, 2-Chloro-6,8-di(4-N-morpholinylbut-2-ynylthio)-7-methylpurine] gave a melting point of 112 to 113 °C. The “cytotoxicity on the normal human fibroblasts (HFF-1), in words” value (“cytotoxicity” for short) in series [2] is reported as “relatively weak cytotoxicity”. Moreover, in series [2] (setting [5]), the half-inhibitory concentration (IC50) was found to be 36.4 µg/mL (≈ 71.7 µM). Further, the IC50 in series [3] turned out to be 26.1 µg/mL (≈ 51.5 µM). Besides, the IC50 in series [4] is 74 µg/mL (≈ 146 µM).
For the compound `Cn1c(SCC#CCN2CCOCC2)nc2c1c(=O)[nH]c(=O)n2C` [Compound 10c, 8-(4-N-morpholinylbut-2-ynylthio)-3,7-dimethylxanthine], the melting point was in the range of 174 to 176 °C. The IC50 in series [1] was 223 µg/mL (≈ 637 µM). In series [2] (setting [5]), the IC50 was 5.87 µg/mL (≈ 16.8 µM). Further, in series [3], the IC50 was less than 1.7 µg/mL and the “Antiproliferative activity IC50 SNB-19” value is 1.69 µg/mL. For the same compound, in series [4], the IC50 was 6.54 µg/mL (≈ 18.7 µM).
With `C#CCSc1nc(SCC#C)c2c(ncn2C)n1` [Compound 4, 2,6-di(prop-2-ynylthio)-7-methylpurine], the melting point lay within 162 to 164 °C. In series [2], the “cytotoxicity” value was “relatively weak cytotoxicity”. In series [2] (setting [5]), the IC50 came out at 10 µg/mL (≈ 36.4 µM). For the same compound, the IC50 in series [3] came out at 15 µg/mL (≈ 54.7 µM).
`CCN(CC)CC#CCSc1nc(Cl)nc2nc(SCC#CCN(CC)CC)n(C)c12` [Compound 15d, 2-Chloro-6,8-di(diethylaminobut-2-ynylthio)-7-methylpurine] registered a melting point of 88 to 90 °C. In series [1], the “Antiproliferative activity IC50 C-32” value is 5.33 µg/mL and the IC50 lay within 2.9 to 5.3 µg/mL (≈ 6.05 to 11.1 µM). Further, the “cytotoxicity” value in series [2] is given as “cytotoxic”. Also, the IC50 in series [2] (setting [5]) came to 1 µg/mL (≈ 2.09 µM). In series [3], the IC50 lay within 2.9 to 5.3 µg/mL (≈ 6.05 to 11.1 µM) and the “Antiproliferative activity IC50 SNB-19” value is 2.91 µg/mL. Further, in series [4], the IC50 stood at 10 µg/mL (≈ 20.9 µM).
For `C#CCSc1nc(Cl)nc2nc(SCC#C)n(C)c12` [Compound 14, 2-chloro-6,8-di(prop-2-ynylthio)-7-methylpurine], the melting point lay in the range of 161 to 163 °C. In addition, the IC50 in series [1] turned out to be 270 µg/mL (≈ 875 µM). In addition, the “cytotoxicity” value in series [2] is “relatively weak cytotoxicity”. In series [2] (setting [5]), the IC50 was 20.1 µg/mL (≈ 65.1 µM). Also, the 50% inhibitory concentration (IC50) in series [4] was 10 µg/mL (≈ 32.4 µM).
Compound `C#CCSc1nc2c(c(=O)[nH]c(=O)n2C)n1C` [Compound 9, 8-(prop-2-ynylthio)-3,7-dimethylxanthine] had a melting point of 252 to 253 °C. In series [1], the “Antiproliferative activity IC50 C-32” value came out at 103.46 µg/mL and the IC50 was more than 100 µg/mL. In series [2] (setting [5]), the IC50 was found to be 154 µg/mL (≈ 614 µM). In series [3], the IC50 is more than 100 µg/mL and the “Antiproliferative activity IC50 SNB-19” value was 191.10 µg/mL. In addition, in series [4], the IC50 is more than 100 µg/mL and the “Antiproliferative activity IC50 MDA-MB-231” value came out at 169.34 µg/mL.

A word on the IC50: it is the midpoint of a concentration-inhibition curve. As a reminder, the melting point is the temperature of the solid-liquid transition.
